Series [1] has as its system MND enzyme. Type of series: biochemical, Methylobacterium Thebainfresser. As to conditions: for substrate acceptance / detectable N-demethylase activity (in words): overnight assays, purified MND enzyme from PLUSE cells. The method, then: Samples were injected by the UFLCXR (Shimadzu) autosampler/pump system using a 0.5 ml/min flow rate prior to separation using a Gemini C-18 column (150×2.00 mm, 5μ, 110 Å; Phenomenex) and introduction into the QTRAP 6500. The program consisted of a binary gradient with solvent A (5% acetonitrile/5% MeOH/10 mM ammonium acetate/15 mM NH4OH) and solvent B (90% acetonitrile/10 mM ammonium acetate/15 mM NH4OH) and the following gradient: 0-2.0 min 0% B, 2.0-9.0 min 0-44% B, 9.0-11.0 min 44-100% solvent B, 11-13 min 100% B and 100-0% solvent B from 13-14 min and held at 0% B for an additional 8 min. EPI scans for each substrate and predicted product mass were included for each enzyme assay and source parameters were identical to those used for the QTRAP 4000 above except CE and DP which were based upon the optimum for each individual compound. Masses used can be found in table 3. Data were analyzed using Analyst 1.6.2.
Substrates were prepared in a 1 mM stock concentration then diluted to 100 μM working concentration for use in enzyme assays with the MND enzyme. […] No more than 15% ethanol was added to the 1 mM concentrations. […] All enzyme assays contained 30 mM potassium phosphate buffer pH 8.0, 7.5 μM substrate and 100 μl of purified MND enzyme (˜36 μg) in a total volume of 200 μl. Duplicate assays of each substrate using purified pET28a empty vector were performed as negative control and an assay containing thebaine and MND enzyme was used as a positive control. Assays were incubated at 30° C. overnight prior to ethyl acetate extraction. All samples were diluted 10 fold with 50% MeOH and analyzed on the QTRAP 6500 using method 2 and a 20 μl injection volume. The percentage of substrate demethylation was calculated based upon reduction of substrate in the enzyme assay as compared to the negative control.
Purified MND enzyme from PLUSE cells was used to test various substrates containing a methylated nitrogen (FIG. 16) in overnight assays.

A short description of series [2]: Proteinase K treatment and cofactor addition, conversion of thebaine to northebaine. It is filed as biochemical. As to conditions: 1500 pmol cofactor added to no enzyme and pET28a empty vector controls. As to the method:
The first of two assays performed included adding 1500 pmol FAD to the 200 MND enzyme assay including 100 μl purified MND (˜36 μg) and 1500 pmol thebaine in 30 mM potassium phosphate buffer pH 7.0 with and without a prior 1 hour digest (of MND enzyme) with Proteinase K. Controls included a no enzyme control, FAD addition to a no enzyme control, a pET28a empty vector control, a pET28a empty vector control with FAD, and a pET28a empty vector control digested with Proteinase K followed by FAD addition. Assays were allowed to incubate for 20 minutes and then processed as in section 23.0. A second set of assays was performed, in duplicate, to validate the results found in the previous assay in addition to testing more cofactors. This assay included the following conditions; MND enzyme, MND enzyme pre-digested with Proteinase K for 1 hour, MND enzyme digested with Proteinase K in the presence of 1% SDS and 10 mM EDTA, MND enzyme with 1% SDS and 10 mM EDTA (no Proteinase K pre-digestion), pET28a empty vector, pET28a empty vector pre-digested with Proteinase K for 1 hour, pET28a empty vector digested with Proteinase K in the presence of 1% SDS and 10 mM EDTA, MND enzyme with the addition of 1500 pmol FMN, pET28a empty vector with the addition of 1500 pmol FMN, MND enzyme with the addition of 1500 pmol PLP and pET28a empty vector with the addition of 1500 pmol PLP. Assays were allowed to proceed for 20 minutes prior to processing and quantitation as described in section 23.0.

Series [3] concerns MND enzyme. The series can be described thus: Purified MND enzyme assay using thebaine as substrate. Type of series: biochemical, Methylobacterium Thebainfresser. The method, then: […]. No enzyme, boiled enzyme, and purified empty vector controls were included. MND enzyme was heated for 10 min at 95° C. for the boiled enzyme control. Assays were extracted twice with 400 μl ethyl acetate and dried to completion with N2. Dried samples were resuspended in 150 μl of 50% MeOH, filtered (low protein binding 0.2 μm, 4 mm, PTFE; Millipore), and diluted 100 fold prior to LC-MS/MS analysis on the QTRAP 6500 using method 1 and a 5 μl injection volume.
Enzyme assays using the purified MND enzyme protein produced in PLUSE cells were done, in duplicate, as indicated above with the following exceptions: 10 μl of 100 μM codeine standard was added to each assay, prior to extraction, as an internal standard. Dried extracts were resuspended in 200 μl of 50% MeOH, filtered (0.2 μm, 4 mm, PTFE, Millipore). Samples were diluted 50 fold prior to a 5 μl injection onto the QTRAP 6500 using method 1.

Substrate in series [4]: COC1=CC=C2[C@H]3Cc4ccc(OC)c5c4[C@@]2(CCN3C)[C@H]1O5
The series can be described thus: purified protein, by the assay type. The following applies: pH 7.0; 30.0 °C.

[5] abbreviates: overnight enzyme assay at 30° C., 7.5 μM substrate, ~36 μg purified MND enzyme, pH 8.0, reduction of substrate vs empty vector control, percentages approximate.

Where two headings read alike, the source gives them in different places.

With `COc1ccc(C[C@@H]2c3cc(O)c(OC)cc3CCN2C)cc1O` [(R)-Reticuline], the Percent demethylated in series [1] (setting [5]) was found to be 25%.

`COc1ccc(C[C@H]2c3cc(O)c(OC)cc3CCN2C)cc1O` [(S)-Reticuline] yielded a Percent demethylated in series [1] (setting [5]) of 55%.

Regarding `CN1[C@@H](CC(=O)c2ccccc2)CCC[C@H]1C[C@H](O)c1ccccc1` [(−)-Lobeline], in series [1], the “substrate acceptance / detectable N-demethylase activity (in words)” value is “accepted”. The Percent demethylated in series [1] (setting [5]) is reported as 20%.

`COc1cc2c(cc1O)[C@H](CCc1cc(O)c(OC)c(OC)c1)N(C)CC2` [Autumnaline]: the Percent demethylated in series [1] (setting [5]) is given as 11%.

As for `COc1ccc2c3c1O[C@H]1[C@@H](O)C=C[C@H]4[C@@H](C2)N(C)CC[C@@]341` [Codeine], the Percent demethylated in series [1] (setting [5]) was 100%.

As for `COc1ccc2c3c1O[C@H]1C(=O)C=C[C@H]4[C@@H](C2)N(C)CC[C@]314` [Codeinone], the Percent demethylated in series [1] (setting [5]) turned out to be 100%.

Regarding `Cc1cc2nc3c(=O)[nH]c(=O)nc-3n(C[C@H](O)[C@H](O)[C@H](O)COP(=O)(O)OP(=O)(O)OC[C@H]3O[C@@H](n4cnc5c(N)ncnc54)[C@H](O)[C@@H]3O)c2cc1C` [FAD, flavin adenine dinucleotide], the “background demethylation of thebaine to northebaine on cofactor addition” value (from here on “background demethylation of thebaine”) in series [2] is recorded as “slight increase”.

With `Cc1cc2nc3c(=O)[nH]c(=O)nc-3n(C[C@H](O)[C@H](O)[C@H](O)COP(=O)(O)O)c2cc1C` [FMN, flavin mononucleotide], the “background demethylation of thebaine” value in series [2] is on record as “increase in background activity”.

Consider `COc1ccc2c3c1O[C@H]1C[C@@H](O)C=C[C@@]31CCN(C)C2` [Galanthamine], for which the “substrate acceptance / detectable N-demethylase activity (in words)” value in series [1] is on record as “accepted”. Further, the Percent demethylated in series [1] (setting [5]) is on record as 27%.

As to `CN(C)Cc1c[nH]c2ccccc12` [Gramine], the “substrate acceptance / detectable N-demethylase activity (in words)” value in series [1] is “accepted”. In series [1] (setting [5]), this molecule showed a Percent demethylated of 51%.

`CC(=O)Oc1ccc2c3c1O[C@H]1[C@@H](OC(C)=O)C=C[C@H]4[C@@H](C2)N(C)CC[C@@]341` [Heroin] came in with a Percent demethylated in series [1] (setting [5]) of 70%.

For the molecule `CN1[C@@H]2CC[C@H]1C[C@@H](OC(=O)[C@H](CO)c1ccccc1)C2` [Hyoscyamine], the “substrate acceptance / detectable N-demethylase activity (in words)” value in series [1] was “accepted”. This molecule also showed a Percent demethylated in series [1] (setting [5]) of 18%.

For the molecule `COc1cc2c3c(c1O)-c1c(cccc1OC)C[C@@H]3N(C)CC2` [Isothebaine], the “substrate acceptance / detectable N-demethylase activity (in words)” value in series [1] is recorded as “accepted”. In addition, in series [1] (setting [5]), the Percent demethylated was 35%.

For the molecule `COc1ccc(C[C@H]2c3cc(OC)c(OC)cc3CCN2C)cc1O` [Laudanine (Laudanidine)], the Percent demethylated in series [1] (setting [5]) is reported as 14%.

As for `COc1ccc(CC2c3cc(OC)c(OC)cc3CCN2C)cc1OC` (centres unmarked) [Laudanosine], in series [1] (setting [5]), the Percent demethylated is recorded as 31%.

In series [1] (pH 8), `CN1CC[C@]23c4c5ccc(O)c4O[C@H]2[C@@H](O)C=C[C@H]3[C@H]1C5` [Morphine] gave a Percent demethylated of 100%.

For the molecule `CN1CC[C@]23c4c5ccc(O)c4O[C@H]2C(=O)C=C[C@H]3[C@H]1C5` [Morphinone], the Percent demethylated in series [1] (setting [5]) turned out to be 100%.

On to `COc1ccc2c(c1OC)C(=O)O[C@@H]2[C@H]1c2c(cc3c(c2OC)OCO3)CCN1C` [Noscapine (Narcotine)], for which the Percent demethylated in series [1] (setting [5]) was 20%.

As for `COc1cc(C[C@@H]2c3cc(O)c(OC)cc3CCN2C)ccc1O` [Orientaline], the Percent demethylated in series [1] (setting [5]) is listed as 100%.

In the case of `COC1=CC=C2[C@H]3Cc4ccc(O)c5c4[C@@]2(CCN3C)[C@H]1O5` [Oripavine], the Percent demethylated in series [1] (setting [5]) is recorded as 100%.

In the case of `CN1CC[C@]23c4c5ccc(O)c4O[C@H]2C(=O)CC[C@@]3(O)[C@H]1C5` [Oxymorphone], in series [1] (setting [5]), the Percent demethylated is on record as 73%.

On to `Cc1ncc(COP(=O)(O)O)c(C=O)c1O` [PLP], for which the “background demethylation of thebaine” value in series [2] is “did not”.

With `COc1ccc(CC2c3cc(OC)c(O)cc3CCN2C)cc1O` (centres unmarked) [Protosinomenine], in series [1] (setting [5]), the Percent demethylated came to 60%.

In turn, `COC1=C[C@]23CCN(C)[C@H](Cc4ccc(OC)c(O)c42)C3=CC1=O` [Salutaridine] returned a Percent demethylated in series [1] (setting [5]) of 100%.

For the molecule `COC1=C[C@]23CCN(C)[C@H](Cc4ccc(OC)c(O)c42)C3=C[C@@H]1O` [Salutaridinol], the Percent demethylated in series [1] (setting [5]) was determined as 100%.

`CN1[C@@H]2C[C@@H](OC(=O)[C@H](CO)c3ccccc3)C[C@H]1[C@@H]1O[C@@H]12` [Scopolamine]: in series [1], the “substrate acceptance / detectable N-demethylase activity (in words)” value is “accepted”. The Percent demethylated in series [1] (setting [5]) is given as 65%.

On to `COC1=CC=C2[C@H]3Cc4ccc(OC)c5c4[C@@]2(CCN3C)[C@H]1O5` [Thebaine], for which, in series [1] (setting [5]), the Percent demethylated is listed as 100%. Besides, in series [3] (aqueous solution at 30° C.), the “conversion to N-demethylthebaine (northebaine)” value turned out to be 100%. Also, the “substrate depletion (in words)” value in series [3] (overnight assay, purified MND enzyme, 1500 pmol thebaine, pH 8.0, 30° C.) was “depleted completely”.

For `CN1[C@@H]2CC[C@H]1CC(=O)C2` [Tropinone], the “substrate acceptance / detectable N-demethylase activity (in words)” value in series [1] is listed as “accepted”. Also, in series [1] (setting [5]), the Percent demethylated was 40%.

In series [1] (setting [5]), Isoorientaline came in with a Percent demethylated of 86%.

B1: Methylobacterium Thebainfresser morphinan N-demethylase (MND), SEQ ID NO: 2, His-tag purified from E. coli PLUSE cells (Methylobacterium thebainfresser) (protein)
chain: MTEKTPKLGSEAANKLGLEADISRRDMVGGVLIGAGAALLASVAPGAINRALAEGPSRLPPVRGSGTGWRGIEIADDWQGPGGIGDYSKSNGNTGKVIRDAHAGIRNHEFEKRLATASDVNEKYDVIIVGAGISGLHSAYDLLRQRPNIKILMLDNHAIFGGEAKQNKMEVDGQALYGGQGPTLYSFVGDDLPSWKGNPALASIMELKTYPKEFGLPTETTWSDKKTDVKVPVDLWFSMASPSQTDIAYRWEGSGLVKNPLLNSFRDAPVSQKSKDAIALMLAVDNGAKRPVEPVGDVSTWVDNMTYAEFLKKVYGADDEAVQLVDQIDVVGTAGLGGDVFNASLAALGLNQYGGIELWNGGLQGLSLPTGNGGVGRSILRKFMPGAIKGGTSLTDTLFGDVNWDVLDHANNNVRIRLNSTVVGVQNNETPTGTKDATVFFLHDNRLYKAKGKAVIMGTPQQVNRNVCLNLPNHLSEAMGDFHHAPILVVNVALRNWKSMEKAGVSGLRWFGEYPGIGQIVRSMVIDGKEIMPCDPSKPAVMTFYIPMNQATRGMPRGEQAMTARHMLFNLTFADIELLIRDQLTRAFGSYGFDAKRDIAAIVANRWGHALVCAGPGFYTGLNGKPPVSKVITAGWDRVAFGHSDLSGRQAWTVAVNYARTAVANVFPKI
Broadly, the Km is the concentration of substrate that gives half-maximal velocity. A word on the Vmax: it is the top rate of the reaction or transport when substrate is in excess. The kcat is the maximal rate divided by the concentration of active sites. For the molecule B1, in series [4], the Km came out at 0.97 µM, the Vmax is 0.32 pmol/s and the kcat was determined as 0.00065 s⁻¹.

These data come from patent publication US11542481B2, “Morphinan N-demethylase isolated from the methylobacterium thebainfresser and methods of use thereof” (priority 2017, dated 2023).
